# Target: T1, DGAT1 (Homo sapiens, UniProt O75907)
# T1 construct: host or cells: HepG2 cell homogenate (supernatant after sonication and 2000×g centrifugation)
# T1 sequence (O75907 1-488): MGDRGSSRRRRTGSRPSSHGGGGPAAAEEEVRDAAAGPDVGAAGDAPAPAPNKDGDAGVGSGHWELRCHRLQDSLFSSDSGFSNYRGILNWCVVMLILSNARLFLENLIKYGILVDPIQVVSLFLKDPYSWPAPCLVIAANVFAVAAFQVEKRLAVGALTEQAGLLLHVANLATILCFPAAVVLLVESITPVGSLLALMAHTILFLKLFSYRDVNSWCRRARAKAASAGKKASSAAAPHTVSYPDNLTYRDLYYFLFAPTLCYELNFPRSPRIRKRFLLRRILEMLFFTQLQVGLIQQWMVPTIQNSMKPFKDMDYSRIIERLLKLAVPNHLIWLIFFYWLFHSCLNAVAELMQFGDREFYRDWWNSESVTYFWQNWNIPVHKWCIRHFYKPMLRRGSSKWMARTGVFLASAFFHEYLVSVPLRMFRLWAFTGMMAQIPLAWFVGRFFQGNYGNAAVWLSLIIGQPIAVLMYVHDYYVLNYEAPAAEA
# Experiment: Assay for inhibition of DGAT1 activity (IC50), in vitro enzymatic assay using homogenates of HepG2 cell line
# Type: biochemical
# Settings: inhibitory activity against DGAT1; HepG2 protein (25 μg), 1,2-dioleoyl-sn-glycerol (30 μM), 14C oleoyl coenzyme A (10 μM), room temperature, 60 mins
# Description: In order to identify DGAT1 inhibitors, in vitro enzymatic assays were performed by using homogenates of HepG2 cell line (ATCC, USA, HB-8065). Briefly stated, HepG2 cells were inoculated in 10% FBS-supplemented medium at 1.0×10^7 cells/well, cultured at 37° C., and harvested 72 hrs later. The harvested cells were lysed by ultrasonic treatment, and centrifuged for at 4° C. (2000×g, 10 mins) to remove any uncracked cells and impurities. The supernatant thus formed was obtained, and stored at −70° C. after its protein contents were quantitatively analyzed.
# DGAT1 activation was assayed by a modification of the method described by Coleman (Methods in Enzymology, 1992, 209, 98-102). The compound of the present invention ([…]) was incubated with HepG2 protein (25 μg), MgCl2 (150 mM) and 1,2-dioleoyl-sn-glycerol (30 μM) in a total assay volume of 200 μL in plastic tubes.
# The reaction was started by adding ^14C oleoyl coenzyme A (10 μM final concentration) and incubated at room temperature for 60 mins. The reaction was ended when a mixed solution (300 μL) of 2-propanol and heptane (7:1) was added thereto. Radioactive triolein product was separated into the organic phase by adding heptane (200 μL) and 1.0 M carbonate buffer (200 μL, pH 9.5). DGAT1 activity was quantified by counting aliquots of the upper heptane layer by liquid […].
row,Structure (SMILES),IC50 [nM]
1,"O=C(O)Cc1ccc(-c2csc3c(-c4ccc(NC(=O)Nc5ccccc5)cc4)ncnc23)cc1 [Example 1, 2-(4-(4-(4-(3-phenylureido)phenyl)thieno[3,2-d]pyrimidin-7-yl)phenyl)acetic acid]",< 5
2,"O=C(O)Cc1ccc(-c2csc3c(-c4ccc(NC(=O)Nc5cccc(Cl)c5)cc4)ncnc23)cc1 [Example 2, 2-(4-(4-(4-(3-(3-chlorophenyl)ureido)phenyl)thieno[3,2-d]pyrimidin-7-yl)phenyl)acetic acid]",< 1
3,"O=C(Nc1ccc(-c2ncnc3c(-c4ccc(C(=O)O)cc4)csc23)cc1)Nc1cccc(Cl)c1 [Example 3, 4-(4-(4-(3-(3-chlorophenyl)ureido)phenyl)thieno[3,2-d]pyrimidin-7-yl)benzoic acid]",< 1
4,"O=C(O)Cc1ccc(-c2csc3c(-c4ccc(NC(=O)Nc5ccc(F)c(F)c5)cc4)ncnc23)cc1 [Example 4, 2-(4-(4-(4-(3-(3,4-difluorophenyl)ureido)phenyl)thieno[3,2-d]pyrimidin-7-yl)phenyl)acetic acid]",< 1
5,"O=C(O)CCc1ccc(-c2csc3c(-c4ccc(NC(=O)Nc5cccc(Cl)c5)cc4)ncnc23)cc1 [Example 7, 3-(4-(4-(4-(3-(3-chlorophenyl)ureido)phenyl)thieno[3,2-d]pyrimidin-7-yl)phenyl)propanoic acid]",< 1
6,"O=C(O)CCc1ccc(-c2csc3c(-c4ccc(NC(=O)Nc5ccc(F)c(F)c5)cc4)ncnc23)cc1 [Example 14, 3-(4-(4-(4-(3-(3,4-difluorophenyl)ureido)phenyl)thieno[3,2-d]pyrimidin-7-yl)phenyl)propanoic acid]",< 5
7,"COc1ccc(NC(=O)Nc2ccc(-c3ncnc4c(-c5ccc(CCC(=O)O)cc5)csc34)cc2)cc1 [Example 15, 3-(4-(4-(4-(3-(4-methoxyphenyl)ureido)phenyl)thieno[3,2-d]pyrimidin-7-yl)phenyl)propanoic acid]",< 5
8,"O=C(O)Cc1ccc(-c2csc3c(-c4ccc(NC(=O)NC5CCCCC5)cc4)ncnc23)cc1 [Example 16, 2-(4-(4-(4-(3-cyclohexylureido)phenyl)thieno[3,2-d]pyrimidin-7-yl)phenyl)acetic acid]",< 1
9,"COc1ccccc1NC(=O)Nc1ccc(-c2ncnc3c(-c4ccc(CCC(=O)O)cc4)csc23)cc1 [Example 20, 3-(4-(4-(4-(3-(2-methoxyphenyl)ureido)phenyl)thieno[3,2-d]pyrimidin-7-yl)phenyl)propanoic acid]",< 5
10,"Cc1ccc(NC(=O)Nc2ccc(-c3ncnc4c(-c5ccc(CCC(=O)O)cc5)csc34)cc2)cc1 [Example 21, 3-(4-(4-(4-(3-p-tolylureido)phenyl)thieno[3,2-d]pyrimidin-7-yl)phenyl)propanoic acid]",< 1
11,"COc1cc(NC(=O)Nc2ccc(-c3ncnc4c(-c5ccc(CCC(=O)O)cc5)csc34)cc2)cc(OC)c1OC [Example 24, 3-(4-(4-(4-(3-(3,4,5-trimethoxyphenyl)ureido)phenyl)thieno[3,2-d]pyrimidin-7-yl)phenyl)propanoic acid]",< 5
12,"NC(=O)CCc1ccc(-c2csc3c(-c4ccc(NC(=O)Nc5cccc(Cl)c5)cc4)ncnc23)cc1 [Example 28, 3-(4-(4-(4-(3-(3-chlorophenyl)ureido)phenyl)thieno[3,2-d]pyrimidin-7-yl)phenyl)propanamide]",< 5
13,"O=C(O)CCc1ccc(-c2csc3c(-c4ccc(NC(=O)Nc5cccc(Cl)c5)cc4)ncnc23)cc1F [Example 30, 3-(4-(4-(4-(3-(3-chlorophenyl)ureido)phenyl)thieno[3,2-d]pyrimidin-7-yl)-2-fluorophenyl)propanoic acid]",< 1
14,"CS(=O)(=O)c1ccc(-c2csc3c(-c4ccc(NC(=O)Nc5cccc(Cl)c5)cc4)ncnc23)cc1 [Example 31, 1-(3-chlorophenyl)-3-(4-(7-(4-(methylsulfon)phenyl)thieno[3,2-d]pyrimidin-4-yl)phenyl)urea]",< 10

# Reference: US20140163226A1, “NOVEL PYRIMIDINE DERIVATIVE AND PHARMACEUTICAL COMPOSITION INCLUDING SAME AS AN ACTIVE INGREDIENT” (HANMI PHARMACEUTICAL CO., LTD., priority 2011, published 2014)
